Here are results for ten compounds from ChEMBL document CHEMBL1201862, “PubChem BioAssay data set” (2004).

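Exposure lasted 48 hours, with cells grown in 96-well plates and compounds tested at five concentrations. GI50: concentration for 50% inhibition of growth.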 Calls of active or inactive are those of the source. No stated cut-off is given here; in the data, active = GI50 up to about 1.1 µM and inactive = higher.

Common to all, as to test: DTP human tumour cell line panel, 48 h
The subject of assay [1] is 786-0.
The test system of assay [2] is A498.
Assay [3] concerns CCRF-CEM.
The test system of assay [4] is DU-145.
The subject of assay [5] is HCT-116.
For assay [6], the system named is HT-29.
Assay [7] deals with Hs-578T.
The test system of assay [8] is IGROV-1.
Assay [9] has as its system KM12.
Assay [10] concerns M14.
For assay [11], the system named is MCF7.
Assay [12] deals with MDA-MB-231.
In assay [13] the test system is NCI-H226.
Assay [14] relates to OVCAR-4.
Assay [15] relates to SF-295.
The test system of assay [16] is SF-539.
Assay [17] has as its system SK-MEL-28.
Assay [18] concerns SK-MEL-2.
Assay [19] relates to SK-MEL-5.
The test system of assay [20] is UACC-257.

Usually GI50 stands for the concentration giving 50% growth inhibition. For `CCOC(=O)n1c2ccccc2c2c(O)c(OC)c3c(c21)C(=O)NC3=O`, the GI50 in assay [1] is 19.5 µM (inactive); in assay [2], 78.7 µM (inactive); in [3], 13.1 µM (inactive); in assay [4], 30 µM (inactive); in assay [5] it was 20.1 µM (inactive); in [6], 24 µM (inactive). The GI50 in [7] is 59.4 µM (inactive); in assay [8], 14.7 µM (inactive); in [9] it was 50.8 µM (inactive); in assay [10] it was 25.8 µM (inactive); in assay [11] it was 54.3 µM (inactive); in assay [12], 20.6 µM (inactive). Further, the GI50 in assay [13] was 7.59 µM (inactive); in assay [14] it was 44.6 µM (inactive); in assay [15], 75.3 µM (inactive); in [16] it was 57.5 µM (inactive); in assay [17] it was > 100 µM (inactive); in [18], > 100 µM (inactive). In addition, the GI50 in assay [19] was 37.1 µM (inactive); in [20], 45.8 µM (inactive).

On to `COc1cc([N+](=O)[O-])ccc1NC(=O)C(F)(F)F`, for which the GI50 in assay [1] is > 100 µM (inactive); in assay [2], > 100 µM (inactive); in assay [3], > 100 µM (inactive); in assay [4], > 100 µM (inactive); in assay [5], > 100 µM (inactive); in assay [6] it was 65.3 µM (inactive). Further, the GI50 in assay [7] is > 100 µM (inactive); in assay [8], > 100 µM (inactive); in assay [9], 97.9 µM (inactive); in assay [10] it was > 100 µM (inactive); in assay [11], > 100 µM (inactive); in assay [12] it was > 100 µM (inactive). Also, the GI50 in assay [13], in [14], in assay [15], in assay [16], in assay [17] and in assay [18] was > 100 µM (inactive) throughout. Besides, the GI50 in [19] and in assay [20] was > 100 µM (inactive) throughout.

Take `CN(C)CCCNc1ccc2nnn3c4ccc([N+](=O)[O-])cc4c(=O)c1c23`: the concentration for 50% growth inhibition (GI50) in [1] is 0.624 µM (active); in assay [2] it was 2.26 µM (inactive); in assay [3], 0.785 µM (active); in assay [4], 1.71 µM (inactive); in assay [5], 0.404 µM (active); in [6] it was 0.55 µM (active). Moreover, the GI50 in [7] is 3.81 µM (inactive); in [8], 1.95 µM (inactive); in assay [9], 0.986 µM (active); in [10] it was 2.14 µM (inactive); in assay [11], 1.74 µM (inactive); in assay [12] it was 0.274 µM (active). Also, the GI50 was 0.403 µM (active) in assay [13]; 1.02 µM (active) in [14]; 1.42 µM (inactive) in assay [15]; 2.13 µM (inactive) in assay [16]; 4.6 µM (inactive) in assay [17]; 3.12 µM (inactive) in [18]. Besides, the GI50 was 1.7 µM (inactive) in assay [19] and 3.4 µM (inactive) in assay [20].

As to `C/C(=N\Nc1ccccc1)C(CN(C)C)C(c1ccccc1)c1c(O)c2ccccc2oc1=O` (stereo not drawn), the GI50 is > 100 µM (inactive) in [1]; > 100 µM (inactive) in [2]; > 83.8 µM (inactive) in assay [3]; > 100 µM (inactive) in [4]; > 100 µM (inactive) in [5]; > 100 µM (inactive) in assay [6]. For the same compound, the GI50 in [7], in assay [8], in assay [9], in assay [10], in assay [11] and in assay [12] was > 100 µM (inactive) in each case. Moreover, the GI50 in assay [13], in [14], in [15], in [16], in assay [17] and in assay [18] was > 100 µM (inactive) each time. Also, the GI50 in assay [19] and in assay [20] was > 100 µM (inactive) each time.

`Cc1cccc(CC(Cc2c(C)cccc2C(=O)O)C(=O)O)c1` (stereo not drawn): the GI50 in [1], in [2], in assay [3], in [4], in assay [5] and in assay [6] was > 100 µM (inactive) throughout. Besides, the GI50 in assay [7], in [8], in assay [9], in assay [10], in assay [11] and in assay [12] was > 100 µM (inactive) each time. Further, the GI50 in assay [13] is > 100 µM (inactive); in [14], > 100 µM (inactive); in assay [15] it was > 100 µM (inactive); in assay [16] it was > 100 µM (inactive); in [17], > 100 µM (inactive); in assay [18], 58.7 µM (inactive). Moreover, the GI50 in assay [19] is 4.49 µM (inactive); in assay [20], > 100 µM (inactive).

As for `N/C(=N\N=C\c1cc2ccccc2s1)c1cnccn1`, the GI50 in [1] is > 100 µM (inactive); in assay [2] it was > 100 µM (inactive); in [3], 53.3 µM (inactive); in [4] it was > 100 µM (inactive); in assay [5], > 100 µM (inactive); in assay [6] it was > 100 µM (inactive). In addition, the GI50 is > 100 µM (inactive) in [7]; > 100 µM (inactive) in assay [8]; > 100 µM (inactive) in assay [9]; > 100 µM (inactive) in assay [10]; 5.24 µM (inactive) in [11]; 82.6 µM (inactive) in assay [12]. The GI50 was > 100 µM (inactive) in assay [13]; > 100 µM (inactive) in [14]; 84.5 µM (inactive) in assay [15]; > 100 µM (inactive) in [16]; > 100 µM (inactive) in assay [17]; > 100 µM (inactive) in assay [18]. Also, the GI50 in assay [19] and in assay [20] was > 100 µM (inactive) each time.

Take `CSC(=S)N/N=C(\C)c1cccc(C)n1`: the GI50 is 0.361 µM (active) in [1]; 2.21 µM (inactive) in assay [2]; 0.0124 µM (active) in assay [3]; 0.845 µM (active) in [4]; 0.183 µM (active) in assay [5]; 0.133 µM (active) in [6]. The GI50 in assay [7] was 6.14 µM (inactive); in assay [8], 1.61 µM (inactive); in [9], 2.26 µM (inactive); in assay [10], 0.312 µM (active); in assay [11] it was 0.128 µM (active); in assay [12], 1.85 µM (inactive). In addition, the GI50 in [13] was 0.824 µM (active); in assay [14] it was 0.497 µM (active); in [15], 1.49 µM (inactive); in assay [16], 1.17 µM (inactive); in assay [17] it was 1.46 µM (inactive); in assay [18], 3.48 µM (inactive). The GI50 was 0.558 µM (active) in assay [19] and 0.92 µM (active) in assay [20].

Take `NS(=O)(=O)c1ccc(NC2(C(=O)O)CCCC2)cc1`: the GI50 in [1], in [2], in assay [3], in assay [4], in [5] and in assay [6] was > 100 µM (inactive) in each case. For the same compound, the GI50 in assay [7], in assay [8], in assay [9], in assay [10], in assay [11] and in assay [12] was > 100 µM (inactive) each time. Further, the GI50 in assay [13], in [14], in assay [15], in [16], in assay [17] and in assay [18] was > 100 µM (inactive) each time. Further, the GI50 in [19] and in assay [20] was > 100 µM (inactive) each time.

For `COc1ccc2[nH]c3c4c(ccc3c2c1)C(=O)C=CC4=O`, the GI50 in assay [1] was 11.4 µM (inactive); in [2] it was 31.3 µM (inactive); in assay [3] it was 0.324 µM (active); in assay [4], 34.8 µM (inactive); in assay [5], 3.62 µM (inactive); in [6], 20.3 µM (inactive). The GI50 in [7] is 24.3 µM (inactive); in [8] it was 16 µM (inactive); in assay [9] it was 21.6 µM (inactive); in [10], 10 µM (inactive); in assay [11] it was 10.8 µM (inactive); in [12], 17.4 µM (inactive). For the same compound, the GI50 in [13] was 21.6 µM (inactive); in assay [14], 15 µM (inactive); in assay [15], 24.7 µM (inactive); in assay [16], 15.7 µM (inactive); in assay [17], 8.2 µM (inactive); in assay [18] it was 13.8 µM (inactive). In addition, the GI50 is 18.9 µM (inactive) in assay [19] and 10 µM (inactive) in assay [20].

For `CC(=O)O[C@H]1CN(S(=O)(=O)c2ccc(C)cc2)C[C@@H]1C1CCCCC1`, the GI50 in assay [2] is > 100 µM (inactive); in [3] it was 37.5 µM (inactive); in [4], 32.9 µM (inactive); in [6] it was 24.4 µM (inactive); in [7], 18.9 µM (inactive); in assay [8], 18.8 µM (inactive). In addition, the GI50 in assay [9] is 17.9 µM (inactive); in assay [10] it was 17.7 µM (inactive); in assay [11], 20.8 µM (inactive); in [12], 51.4 µM (inactive); in [13], 16.7 µM (inactive); in assay [14], 31.9 µM (inactive). In addition, the GI50 is 14.4 µM (inactive) in assay [15]; < 0.01 µM (active) in assay [16]; 20.5 µM (inactive) in [17]; 18.7 µM (inactive) in [18]; 10.6 µM (inactive) in assay [19]; 18 µM (inactive) in [20].
